The source of these data is PubChem BioAssay AID1259411 (Chemical Carcinogenesis Research Information System (CCRIS), 2018).

The test system of the data set is rodent carcinogenicity bioassays, tumor incidence. Kind of data set: CCRIS carcinogenicity studies. The procedure, abridged:
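Archive of carcinogenicity, mutagenicity, tumor promotion and tumor inhibition results drawn from journals, NCI reports and other sources, expert-reviewed; covers 1985-2011 and is no longer updated.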

Calls of active or inactive are those of the source. How the calls were made is not given here.

With `O.O=S(=O)([O-])[O-].[Mn+2]`, the carcinogen call is, setting by setting: (Species: MOUSE, Strain/Sex: B6C3F1/FEMALE, Route: ORAL, Dose: 0, 1500, 5000, 15000 PPM IN DIET (0; 60; 200; 615 MG/KG/D) FOR 105 WK (STUDY DURATION: 105 WK), Dose: 0, 1500, 5000, 15000 PPM IN DIET (0; 60; 200; 615 MG/KG/D) FOR 105 WK (STUDY DURATION: 105 WK), Tumor Site: Type of Lesion: THYROID GLAND (FOLLICULAR CELL): ADENOMA) “equivocal”; (Species: MOUSE, Strain/Sex: B6C3F1/MALE, Route: ORAL, Dose: 0, 1500, 5000, 15000 PPM IN DIET (0; 60; 200; 615 MG/KG/D) FOR 105 WK (STUDY DURATION: 105 WK), Dose: 0, 1500, 5000, 15000 PPM IN DIET (0; 60; 200; 615 MG/KG/D) FOR 105 WK (STUDY DURATION: 105 WK), Tumor Site: Type of Lesion: THYROID GLAND (FOLLICULAR CELL): ADENOMA) “equivocal”; (Species: RAT, Strain/Sex: F344/FEMALE, Route: ORAL, Dose: 0, 1500, 5000, 15000 PPM IN DIET (0; 70; 230; 715 MG/KG/D) FOR 2 YR (STUDY DURATION: 2 YR), Dose: 0, 1500, 5000, 15000 PPM IN DIET (0; 70; 230; 715 MG/KG/D) FOR 2 YR (STUDY DURATION: 2 YR)) “inactive; negative”; (Species: RAT, Strain/Sex: F344/MALE, Route: ORAL, Dose: 0, 1500, 5000, 15000 PPM IN DIET (0; 60; 200; 615 MG/KG/D) FOR 2 YR (STUDY DURATION: 2 YR), Dose: 0, 1500, 5000, 15000 PPM IN DIET (0; 60; 200; 615 MG/KG/D) FOR 2 YR (STUDY DURATION: 2 YR)) “inactive; negative”.

As for `Cc1ccc2cc3c(ccc4ccccc43)c3c2c1C=C3`, the carcinogen call (Species: MOUSE, Strain/Sex: SWISS/FEMALE, Route: DERMAL, Dose: 0.2 UMOL IN 33.4 µL ACETONE TO SHAVED DORSAL SKIN 2/WK FOR 20 WK (STUDY DURATION: 52 WK), Tumor Site: Type of Lesion: SKIN: PAPILLOMA, KERATOACANTHOMA, EPIDERMAL CARCINOMA) is “active; positive”.

`CCCC1O[C@@H]2C[C@H]3[C@@H]4CCC5=CC(=O)C=C[C@]5(C)[C@H]4[C@@H](O)C[C@]3(C)[C@]2(C(=O)CO)O1` (some centres undefined): the carcinogen call (Species: RAT, Strain/Sex: SPRAGUE-DAWLEY/MALE, Route: ORAL, Dose: 0, 5 UG/ML IN DRINKING WATER FOR AN AVERAGE DAILY DOSE OF 46.6 UG/KG FOR 104 WK (STUDY DURATION: 104 WK), Tumor Site: Type of Lesion: LIVER: HEPATOCELLULAR ADENOMA OR CARCINOMA) was “active; positive”.

As for `CCC[CH2][Sn]([CH2]CCC)([CH2]CCC)[O][Sn]([CH2]CCC)([CH2]CCC)[CH2]CCC`, the carcinogen call is, setting by setting: (Species: RAT, Strain/Sex: WISTAR/FEMALE, Route: ORAL, Dose: 0, 0.5, 5, 50 MG/KG DIET FOR 30 MO (STUDY DURATION: 30 MO), Dose: 0, 0.5, 5, 50 MG/KG DIET FOR 30 MO (STUDY DURATION: 30 MO), Tumor Site: Type of Lesion: ADRENAL GLAND: PHEOCHROMOCYTOMA, PITUITARY: TUMOR) “active; positive”; (Species: RAT, Strain/Sex: WISTAR/MALE, Route: ORAL, Dose: 0, 0.5, 5, 50 MG/KG DIET FOR 30 MO (STUDY DURATION: 30 MO), Dose: 0, 0.5, 5, 50 MG/KG DIET FOR 30 MO (STUDY DURATION: 30 MO), Tumor Site: Type of Lesion: ADRENAL GLAND: PHEOCHROMOCYTOMA, PITUITARY: TUMOR, PARATHYROID: ADENOMA, Tumor Site: Type of Lesion: ADRENAL GLAND: PHEOCHROMOCYTOMA, PITUITARY: TUMOR, PARATHYROID: ADENOMA) “active; positive”.

`CC(C)CON=O`: the carcinogen call is, setting by setting: (Species: MOUSE, Strain/Sex: B6C3F1/FEMALE, Route: INHALATION, Dose: 0, 158, 315, 630 MG/M3 6 HR/D 5 D/WK FOR 103 WK (STUDY DURATION: 104 WK), Dose: 0, 158, 315, 630 MG/M3 6 HR/D 5 D/WK FOR 103 WK (STUDY DURATION: 104 WK), Tumor Site: Type of Lesion: LUNG: ALVEOLAR/BRONCHIOLAR ADENOMA, ALVEOLAR/BRONCHIOLAR ADENOMA OR CARCINOMA) “active; positive”; (Species: MOUSE, Strain/Sex: B6C3F1/MALE, Route: INHALATION, Dose: 0, 158, 315, 630 MG/M3 6 HR/D 5 D/WK FOR 103 WK (STUDY DURATION: 104 WK), Dose: 0, 158, 315, 630 MG/M3 6 HR/D 5 D/WK FOR 103 WK (STUDY DURATION: 104 WK), Tumor Site: Type of Lesion: LUNG: ALVEOLAR/BRONCHIOLAR ADENOMA, ALVEOLAR/BRONCHIOLAR ADENOMA OR CARCINOMA) “active; positive”; (Species: RAT, Strain/Sex: F344/FEMALE, Route: INHALATION, Dose: 0, 158, 315, 630 MG/M3 6 HR/D 5 D/WK FOR 103 WK (STUDY DURATION: 105 WK), Dose: 0, 158, 315, 630 MG/M3 6 HR/D 5 D/WK FOR 103 WK (STUDY DURATION: 105 WK), Tumor Site: Type of Lesion: LUNG: ALVEOLAR/BRONCHIOLAR ADENOMA, ALVEOLAR/BRONCHIOLAR CARCINOMA OR ADENOMA) “active; positive”; (Species: RAT, Strain/Sex: F344/MALE, Route: INHALATION, Dose: 0, 158, 315, 630 MG/M3 6 HR/D 5 D/WK FOR 103 WK (STUDY DURATION: 105 WK), Dose: 0, 158, 315, 630 MG/M3 6 HR/D 5 D/WK FOR 103 WK (STUDY DURATION: 105 WK), Tumor Site: Type of Lesion: LUNG: ALVEOLAR/BRONCHIOLAR ADENOMA, ALVEOLAR/BRONCHIOLAR CARCINOMA) “active; positive”.

Take `CC(=O)Nc1ccc2ccc3cccc4ccc1c2c34`: the carcinogen call by setting is: (Species: RAT, Strain/Sex: STRAIN-CD/FEMALE, Route: INTRAPERITONEAL, Dose: 0, 67 UMOL/KG BW IN DMSO 3/WK FOR 4 WK (STUDY DURATION: 61 WK)) “inactive; negative”; (Species: RAT, Strain/Sex: STRAIN-CD/FEMALE, Route: INTRAPERITONEAL, Dose: 0, 67 UMOL/KG/BW IN 25 UMOL/ML DMSO 3/WK FOR 4 WK (TOTAL DOSE: 0; 119 UMOL) ADMINISTERED TO WEANLING RATS (STUDY DURATIO, Dose: 0, 67 UMOL/KG/BW IN 25 UMOL/ML DMSO 3/WK FOR 4 WK (TOTAL DOSE: 0; 119 UMOL) ADMINISTERED TO WEANLING RATS (STUDY DURATIO) “inactive; negative”.

With `Cc1ccc(O)c(O)c1`, the carcinogen call was “active; positive” (Species: RAT, Strain/Sex: F344/FEMALE, Route: ORAL, Dose: 0, 2% IN DIET FOR 104 WK (STUDY DURATION: 104 WK), Tumor Site: Type of Lesion: FORESTOMACH: PAPILLOMA, SQUAMOUS CELL CARCINOMA, GLANDULAR STOMACH: ADENOMA, ADENOCARCINOMA) and “active; positive” (Species: RAT, Strain/Sex: F344/MALE, Route: ORAL, Dose: 0, 2% IN DIET FOR 104 WK (STUDY DURATION: 104 WK), Tumor Site: Type of Lesion: FORESTOMACH: PAPILLOMA, SQUAMOUS CELL CARCINOMA, GLANDULAR STOMACH: ADENOMA, ADENOCARCINOMA).

For the compound `Cc1cc(=O)oc2c1cc(C)c1occ(C)c12`, the carcinogen call (Species: MOUSE, Strain/Sex: C3H/HEN/FEMALE, Route: DERMAL, Dose: 0, 250 UG IN 70% ETHANOL 3/WK FOR 48 WK (STUDY DURATION: 68 WK)) was “inactive; negative”.

Regarding `N#Cc1c(Cl)cccc1Cl`, the carcinogen call is “active; positive” (Species: MICE, Strain/Sex: SWISS/MALE, Route: INTRAPERITONEAL, Dose: 2 PPM (0.0005MG) 1/3 D FOR 13 TIMES (STUDY DURATION: 375 D), Tumor Site: Type of Lesion: LYMPHATIC SYSTEM: HISTIOCYTIC LYMPHOMA, PLASMA CELL LYMPHOMA, LIVER: HEPATOCELLULAR CARCINOMA) and “active; positive” (Species: MICE, Strain/Sex: SWISS/MALE, Route: SUBCUTANEOUS, Dose: 2 PPM (0.0005MG) 1/3 D FOR 13 TIMES (STUDY DURATION: 375 D), Tumor Site: Type of Lesion: LYMPHATIC SYSTEM: PLASMA CELL LYMPHOMA, LUNG: CARCINOMA, BODY CAVITY: MESOTHELIOMA, LIVER: HEPATOCELLULAR CARCINOMA, Tumor Site: Type of Lesion: LYMPHATIC SYSTEM: PLASMA CELL LYMPHOMA, LUNG: CARCINOMA, BODY CAVITY: MESOTHELIOMA, LIVER: HEPATOCELLULAR CARCINOMA).

As to `CI`, the carcinogen call (Species: MOUSE, Route: INTRAPERITONEAL, Tumor Site: Type of Lesion: LUNG) was “active; positive”; the carcinogen call (Species: RAT, Route: SUBCUTANEOUS, Tumor Site: Type of Lesion: INJECTION SITE) was “active; positive”; the carcinogen call (Species: Rat, Strain/Sex: Crl:CD(SD)IGS BR/Female (50/Group), Route: Inhalation (whole body), Dose: 0, 5, 20, 60 ppm for 2 yr, study duration 2 yr, Dose: 0, 5, 20, 60 ppm for 2 yr, study duration 2 yr, Tumor Site: Type of Lesion: Thyroid: follicular cell adenoma (60 ppm)) was “active; positive”; the carcinogen call (Species: Rat, Strain/Sex: Crl:CD(SD)IGS BR/Male (50/Group), Route: Inhalation (whole body), Dose: 0, 5, 20, 60 ppm for 2 yr, study duration 2 yr, Dose: 0, 5, 20, 60 ppm for 2 yr, study duration 2 yr, Tumor Site: Type of Lesion: Thyroid: follicular cell adenoma (60 ppm)) is “active; positive”.

In the case of `CN(N=O)C(=O)Oc1cccc2ccccc12`, the carcinogen call (Species: MOUSE, Strain/Sex: CFLP/FEMALE, Route: DERMAL, Dose: 0, 12.5, 50, 200 UG IN ACETONE 2 D/WK FOR 104 WK (STUDY DURATION: 24 MO), Dose: 0, 12.5, 50, 200 UG IN ACETONE 2 D/WK FOR 104 WK (STUDY DURATION: 24 MO), Tumor Site: Type of Lesion: SKIN: CARCINOMA) was “active; positive”.
